The source of these data is PubChem BioAssay (NCI).

Each structure is given as a SMILES string.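 These data come from cells grown in 96-well plates and exposed to compound for 48 hours at five concentrations. GI50 = concentration required for 50% inhibition of growth. TGI marks complete inhibition of growth.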

Among the test systems are 786-0 renal; SK-MEL-28 melanoma; HCT-116 colon; IGROV1 ovarian; UACC-257 melanoma; RXF 393 renal; COLO 205 colon.
What all share (experiment): DTP human tumour cell line panel, 48 h

What is called GI50 is the concentration giving 50% growth inhibition. As a reminder, the TGI is the concentration giving total growth inhibition. Higher therefore signals lower sensitivity of the cells. Consider `COC(=O)/C=C/c1cc(OC)c2c(c1)[C@@H](C(=O)OC)[C@H](c1ccc(OC)c(OC)c1)O2`, for which the GI50 with 786-0 renal was 4.89 µM; in the experiment on SK-MEL-28 melanoma, 26.4 µM; in the experiment on HCT-116 colon it was 0.528 µM; with IGROV1 ovarian it was 3.84 µM. The TGI in the experiment on 786-0 renal, in the experiment on SK-MEL-28 melanoma, with HCT-116 colon, in the experiment on IGROV1 ovarian and in the experiment with UACC-257 melanoma was over 100 µM in each case.
Turning to `COc1cc(/C=C/C(=O)c2ccc(SC)cc2)cc(OC)c1OC`, the GI50 is 6.43 µM in the experiment with 786-0 renal; 2.62 µM in the experiment on RXF 393 renal; 16.9 µM in the experiment on SK-MEL-28 melanoma; 3.3 µM in the experiment with HCT-116 colon; 13.3 µM in the experiment with COLO 205 colon; 5.45 µM in the experiment on UACC-257 melanoma. For the same compound, the TGI was found to be 20.4 µM with 786-0 renal; 7.01 µM with RXF 393 renal; 32.5 µM in the experiment on SK-MEL-28 melanoma; 13.7 µM in the experiment on HCT-116 colon; 31.5 µM in the experiment on COLO 205 colon; 18.1 µM with UACC-257 melanoma.
`Cc1cnc2n(c1=O)Cc1ccccc1CO2`: the GI50 in the experiment on 786-0 renal was 18.8 µM; with RXF 393 renal, 15.2 µM; in the experiment on SK-MEL-28 melanoma, 20.9 µM; with HCT-116 colon it was 17.2 µM; in the experiment with COLO 205 colon, 17.1 µM; in the experiment on IGROV1 ovarian it was 14.4 µM. For the same compound, the GI50 in the experiment with UACC-257 melanoma was 23 µM. The TGI in the experiment on 786-0 renal worked out at 39.4 µM; in the experiment on RXF 393 renal, 36.8 µM; with SK-MEL-28 melanoma it was 45.1 µM; with HCT-116 colon, 43.8 µM; in the experiment with COLO 205 colon, 37.1 µM; with IGROV1 ovarian, 32.5 µM. The same compound showed a TGI in the experiment with UACC-257 melanoma of 66 µM.
In the case of `C=C(C=O)[C@@H]1CC=C(C=O)CC1`, the GI50 in the experiment with 786-0 renal was 16.8 µM; in the experiment on RXF 393 renal, 3.72 µM; with SK-MEL-28 melanoma it was 2.43 µM; in the experiment on IGROV1 ovarian it was 3.19 µM; in the experiment with UACC-257 melanoma, 15 µM. Further, the TGI in the experiment with 786-0 renal is 80 µM; with RXF 393 renal, over 100 µM; in the experiment with SK-MEL-28 melanoma, 5.87 µM; in the experiment on IGROV1 ovarian, over 23.3 µM; in the experiment with UACC-257 melanoma, 57.9 µM.
As to `COc1ccc(/C=N/C2=C(C#N)C(c3ccccc3)c3ccc4ccccc4c3O2)cc1` (stereo unspecified), the GI50 with 786-0 renal was 0.492 µM; in the experiment on SK-MEL-28 melanoma it was 1.37 µM; with HCT-116 colon, 0.402 µM; with COLO 205 colon it was 0.719 µM; with IGROV1 ovarian, 0.403 µM; in the experiment with UACC-257 melanoma, over 84.5 µM. Also, the TGI with 786-0 renal is over 100 µM; in the experiment with SK-MEL-28 melanoma, over 100 µM; in the experiment with HCT-116 colon it was over 37.8 µM; in the experiment with COLO 205 colon, 8.49 µM; in the experiment on IGROV1 ovarian, over 100 µM; with UACC-257 melanoma it was over 100 µM.
With `CCc1cc(Cc2cc(CC)cc(C(C)(C)C)c2O)c(O)c(C(C)(C)C)c1`, the GI50 was 3.5 µM in the experiment with 786-0 renal; 1.81 µM in the experiment on RXF 393 renal; 2.39 µM in the experiment on SK-MEL-28 melanoma; 2.09 µM with HCT-116 colon; 1.89 µM in the experiment with COLO 205 colon; 2.53 µM in the experiment with IGROV1 ovarian. The GI50 in the experiment on UACC-257 melanoma is 2.79 µM. Also, the TGI turned out to be 14.4 µM in the experiment on 786-0 renal; 4.98 µM with RXF 393 renal; 7.53 µM with SK-MEL-28 melanoma; 5.82 µM in the experiment with HCT-116 colon; 3.56 µM in the experiment with COLO 205 colon; 8.05 µM with IGROV1 ovarian. In the experiment on UACC-257 melanoma, this compound had a TGI of 11.6 µM.
Turning to `COc1ccc2nc3c(cc2c1)C(=O)CC(C(F)(F)F)C3` (stereo unspecified), the GI50 in the experiment with 786-0 renal was 4.36 µM; in the experiment on RXF 393 renal it was 0.562 µM; in the experiment with SK-MEL-28 melanoma, 1.26 µM; in the experiment on HCT-116 colon, 0.142 µM; in the experiment on COLO 205 colon, 0.958 µM; with IGROV1 ovarian it was 0.792 µM. Further, the GI50 in the experiment on UACC-257 melanoma was over 96.2 µM. Moreover, the TGI with 786-0 renal is over 100 µM; in the experiment on RXF 393 renal it was 5.1 µM; in the experiment with SK-MEL-28 melanoma, over 100 µM; in the experiment with HCT-116 colon, over 100 µM; in the experiment on COLO 205 colon, over 55.9 µM; in the experiment with IGROV1 ovarian it was over 100 µM. In the experiment with UACC-257 melanoma, this compound gave a TGI of over 100 µM.
For the compound `Nc1c(C(=O)Nc2cccc3ccccc23)sc2nc3c(cc12)CCCCCC3`, the GI50 in the experiment with 786-0 renal is 2.13 µM; in the experiment with RXF 393 renal, 1.5 µM; in the experiment on SK-MEL-28 melanoma it was over 50 µM; with HCT-116 colon, 1.72 µM; with COLO 205 colon it was 1.45 µM; in the experiment with IGROV1 ovarian, 2.31 µM. For the same compound, the GI50 with UACC-257 melanoma is over 50 µM. For the same compound, the TGI was over 50 µM in the experiment with 786-0 renal; over 50 µM with RXF 393 renal; over 50 µM in the experiment on SK-MEL-28 melanoma; over 50 µM in the experiment with HCT-116 colon; 4.8 µM in the experiment with COLO 205 colon; over 50 µM with IGROV1 ovarian. In addition, the TGI with UACC-257 melanoma is over 50 µM.
Regarding `c1ccc2c(c1)-c1nc3ccccc3cc1C2N1CCOCC1` (stereo unspecified), the TGI in the experiment with 786-0 renal, in the experiment on RXF 393 renal, in the experiment on SK-MEL-28 melanoma, with HCT-116 colon, in the experiment on COLO 205 colon and with IGROV1 ovarian was over 100 µM throughout. Further, in the experiment on UACC-257 melanoma, the TGI was over 100 µM.
For the compound `c1ccc(Oc2cnc3ccccc3n2)cc1`, the GI50 in the experiment with 786-0 renal was over 100 µM; in the experiment with RXF 393 renal, 31.9 µM; in the experiment with SK-MEL-28 melanoma, over 100 µM; in the experiment on HCT-116 colon, over 100 µM; in the experiment on COLO 205 colon, over 100 µM; with IGROV1 ovarian, 74.5 µM. The GI50 in the experiment on UACC-257 melanoma was over 100 µM. For the same compound, the TGI with 786-0 renal, in the experiment on RXF 393 renal, with SK-MEL-28 melanoma, in the experiment on HCT-116 colon, with COLO 205 colon and with IGROV1 ovarian was over 100 µM throughout. The same compound registered a TGI with UACC-257 melanoma of over 100 µM.
For `Cn1cc(C2=C(c3cn(CCCN/C(N)=N\[N+](=O)[O-])c4ccccc34)C(=O)NC2=O)c2ccccc21`, the GI50 in the experiment with 786-0 renal was 5.07 µM; in the experiment on RXF 393 renal, 2 µM; in the experiment on SK-MEL-28 melanoma, 3.38 µM; with HCT-116 colon it was 1.82 µM; in the experiment on COLO 205 colon, 1.24 µM; with IGROV1 ovarian, 3.11 µM. For the same compound, the GI50 in the experiment with UACC-257 melanoma was 7.12 µM. Moreover, the TGI in the experiment with 786-0 renal is over 25 µM; with RXF 393 renal it was 7.3 µM; with SK-MEL-28 melanoma, 18.5 µM; in the experiment with HCT-116 colon, over 25 µM; in the experiment on COLO 205 colon, 6.44 µM; in the experiment with IGROV1 ovarian, 11.6 µM. Moreover, in the experiment with UACC-257 melanoma, the TGI turned out to be 21.8 µM.
Turning to `O=C1COCCN1c1ccc(NCc2cn(Cc3ccc(F)cc3)c3ccccc23)cc1`, the GI50 was 2.7 µM with 786-0 renal; 0.911 µM in the experiment on RXF 393 renal; 15.4 µM in the experiment with SK-MEL-28 melanoma; 0.0618 µM in the experiment on HCT-116 colon; 0.664 µM in the experiment on COLO 205 colon; 0.0668 µM with IGROV1 ovarian. For the same compound, the GI50 in the experiment on UACC-257 melanoma is 0.204 µM. Besides, the TGI in the experiment on 786-0 renal turned out to be 41 µM; with RXF 393 renal, 5.76 µM; in the experiment with SK-MEL-28 melanoma it was 77.9 µM; in the experiment on HCT-116 colon, 14 µM; in the experiment on COLO 205 colon, 5.29 µM; in the experiment with IGROV1 ovarian it was 1.05 µM. In the experiment on UACC-257 melanoma, this compound came in with a total growth inhibition concentration (TGI) of 0.844 µM.
For `Nc1c2c(c(O)c3c1=C(CO)C=N3)=NCCS2=O` (stereo unspecified), the GI50 was 1.98 µM in the experiment with 786-0 renal; 3.84 µM in the experiment with RXF 393 renal; 2.25 µM with HCT-116 colon; 1.71 µM in the experiment on COLO 205 colon; 1.9 µM in the experiment with IGROV1 ovarian; 1.62 µM with UACC-257 melanoma. For the same compound, the TGI in the experiment with 786-0 renal came to 4.52 µM; with RXF 393 renal, 17.5 µM; in the experiment with HCT-116 colon it was 4.95 µM; in the experiment with COLO 205 colon, 3.52 µM; in the experiment on IGROV1 ovarian it was 4.29 µM; in the experiment with UACC-257 melanoma it was 3.14 µM.
For `O=c1c(-c2nc3ccccc3[nH]2)cc2ccccc2n1Cc1cn(Cc2ccc(F)cc2)nn1`, the GI50 in the experiment with 786-0 renal was 0.415 µM; with RXF 393 renal it was 0.125 µM; in the experiment on HCT-116 colon, 0.0442 µM; in the experiment with IGROV1 ovarian it was 0.221 µM; with UACC-257 melanoma, over 100 µM. For the same compound, the TGI in the experiment on 786-0 renal was 11.3 µM; with RXF 393 renal it was 0.484 µM; in the experiment with HCT-116 colon it was 5.56 µM; in the experiment on IGROV1 ovarian, over 100 µM; in the experiment on UACC-257 melanoma, over 100 µM.
As to `Cc1cc(=O)[nH]c2c1C(=O)C(=O)C=C2`, the GI50 with 786-0 renal is 18.7 µM; in the experiment on SK-MEL-28 melanoma it was over 100 µM; with HCT-116 colon, 18.2 µM; with COLO 205 colon it was over 100 µM; in the experiment on IGROV1 ovarian it was 48.6 µM; in the experiment on UACC-257 melanoma, over 100 µM. Also, the TGI in the experiment on 786-0 renal was 36.3 µM; in the experiment on SK-MEL-28 melanoma, over 100 µM; in the experiment with HCT-116 colon it was 35.4 µM; in the experiment with COLO 205 colon, over 100 µM; in the experiment on IGROV1 ovarian, over 100 µM; in the experiment on UACC-257 melanoma it was over 100 µM.
On to `COc1ccc2c(C(=O)NCCCCCC(=O)O)cc3cc4c(cc3c2c1)OCO4`, for which the GI50 with 786-0 renal, with RXF 393 renal, in the experiment on SK-MEL-28 melanoma, with HCT-116 colon, in the experiment on COLO 205 colon and in the experiment on UACC-257 melanoma was over 100 µM each time. In addition, the TGI with 786-0 renal, in the experiment with RXF 393 renal, in the experiment with SK-MEL-28 melanoma, with HCT-116 colon, with COLO 205 colon and in the experiment on UACC-257 melanoma was over 100 µM throughout.
Turning to `COc1ccc(S(=O)(=O)Nc2c(/C=C\c3cc(OC)c(OC)c(OC)c3)ccc(OC)c2O)cc1OC`, the GI50 in the experiment on 786-0 renal is 0.42 µM; with SK-MEL-28 melanoma, 1.74 µM; with HCT-116 colon it was 0.171 µM; in the experiment on COLO 205 colon it was 0.472 µM; with IGROV1 ovarian it was 0.358 µM; with UACC-257 melanoma, over 78.2 µM. Further, the TGI was over 100 µM in the experiment on 786-0 renal; over 100 µM in the experiment with SK-MEL-28 melanoma; over 100 µM in the experiment with HCT-116 colon; 2.99 µM in the experiment with COLO 205 colon; over 100 µM with IGROV1 ovarian; over 100 µM in the experiment with UACC-257 melanoma.
